Test results as given in US9868766B2, “Peptides as oxytocin agonists” (Hoffmann-La Roche Inc., priority 2012, dated 2018).
Positions of bridges follow the written chain, without caps; N, C: chain ends. Non-standard residues stand in square brackets, D forms with d. Residues, ends and D or L forms follow the SMILES beside them. Pro(trans-4-F) = O=C(O)[C@@H]1C[C@@H](F)CN1; d(aIle) = CC[C@H](C)[C@@H](N)C(=O)O; Aoc(2) = CCCCCC[C@H](N)C(=O)O; αMeL = CC(C)C[C@](C)(N)C(=O)O; Chg = N[C@H](C(=O)O)C1CCCCC1; hLeu = CC(C)CC[C@H](N)C(=O)O; β3hP = O=C(O)C[C@@H]1CCCN1; Pip = O=C(O)[C@@H]1CCCCN1; Ac5c = NC1(C(=O)O)CCCC1; Dap = NC[C@H](N)C(=O)O; Aib = CC(C)(N)C(=O)O; Sar = CNCC(=O)O

Target: T1, human Oxytocin (OTR) receptor (Homo sapiens, UniProt P30559)
T1 construct: expressed in transfected cells
T1 sequence (P30559 1-389): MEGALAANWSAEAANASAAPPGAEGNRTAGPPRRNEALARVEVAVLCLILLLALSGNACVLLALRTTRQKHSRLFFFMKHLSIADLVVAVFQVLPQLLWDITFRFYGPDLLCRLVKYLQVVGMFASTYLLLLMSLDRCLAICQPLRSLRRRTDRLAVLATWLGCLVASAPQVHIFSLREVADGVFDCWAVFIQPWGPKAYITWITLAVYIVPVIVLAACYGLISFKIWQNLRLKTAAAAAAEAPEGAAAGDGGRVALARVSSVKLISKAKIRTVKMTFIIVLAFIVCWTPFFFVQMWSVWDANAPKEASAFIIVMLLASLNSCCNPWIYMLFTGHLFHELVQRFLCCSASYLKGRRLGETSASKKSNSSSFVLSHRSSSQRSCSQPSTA
Assay: Calcium flux assay (FLIPR), agonist mode, CHO cells expressing human OTR
Type: cell-based
Conditions: for EC50: CHO cells stably expressing human OTR, calcium flux, read-out: hOT EC50; for hOT efficacy (%) / Emax: maximum response normalized to endogenous full agonist = 100%; for Emax: CHO, read-out: hOT efficacy (%)
Text: Chines Hamster Ovary (CHO) cells were transfected with expression plasmids encoding either the human V1a, the human Oxytocin (OTR) or the humanV2 receptor, the later in combination with the chimeric Gqs5 G protein to redirect the signal to Calcium flux. Stable cells were cloned by limiting dilution to yield monoclonal cell lines expressing either human V1a, human V2+Gqs5 or human OTR receptors and selected based on functional responses detected on a fluorometric imaging plate reader (FLIPR) detecting Calcium flux in the cell after receptor activation.
On the afternoon before the assay, cells were plated at a density of 50,000 cells/well into black 96 well plates with clear bottoms to allow cell inspection and fluorescence measurements from the bottom of each well. The density of cells was sufficient to yield a confluent monolayer the next day. Hanks balanced salt solution, without phenol red, containing 20 mM HEPES (pH 7.3) and 2.5 mM probenecid (assay buffer) was prepared fresh for each experiment. Compound dilutions were made using a Beckman Biomek 2000 laboratory automation workstation, in assay buffer containing 1% DMSO. The dye-loading buffer consisted of a final concentration of 2 μM Fluo-4-AM (dissolved in DMSO and pluronic acid) in assay buffer. […] Once dye-loaded, the cells were washed thoroughly on an Embla cell washer with the assay buffer to remove any unincorporated dye. Exactly 100 μl assay buffer was left in each well.
Each 96 well plate containing dye-loaded cells was placed into the FLIPR machine and the laser intensity set to a suitable level to detect low basal fluorescence. To test compounds as agonists, 25 μl diluted compound was added to the plate 10 seconds into the fluorescent measurements and fluorescent response was recorded for 5 minutes. The fluorescence data was normalized to the endogenous full agonist dose-response set at 100% for the maximum response and 0% for the minimum. […] The concentration of agonist that produced a half-maximal response is represented by the EC50 value, the logarithm of which yielded the pEC50 value.

| SMILES | EC50 [nM] | hOT efficacy (%) | Emax [%] |
| --- | --- | --- | --- |
| CC[C@H](C)[C@@H]1NC(=O)[C@H](Cc2ccc(O)cc2)NC(=O)[C@H](C)NC(=O)CC[C@@H](C(=O)N2CCC[C@H]2C(=O)N[C@@H](CC(C)C)C(=O)NCC(N)=O)NC(=O)[C@H](CC(N)=O)NC(=O)[C@H](CCC(N)=O)NC1=O [Example 3] (AYIQNEPLG-NH2; lactam N-6) | 4 | 94 |  |
| CC[C@H](C)[C@@H]1NC(=O)[C@H](Cc2ccc(O)cc2)NC(=O)CNC(=O)CC[C@@H](C(=O)N2CCC[C@H]2C(=O)N[C@@H](CC(C)C)C(=O)N(C)CC(N)=O)NC(=O)[C@H](CC(N)=O)NC(=O)[C@H](CCC(N)=O)NC1=O [Example 5] (GYIQNEPL[Sar]-NH2; lactam N-6) | 181 | 108 |  |
| CC[C@H](C)[C@@H]1NC(=O)[C@H](Cc2ccc(O)cc2)NC(=O)CNC(=O)CC[C@@H](C(=O)N2CCC[C@H]2C(=O)NCC(=O)NCC(N)=O)NC(=O)[C@H](CC(N)=O)NC(=O)[C@H](CCC(N)=O)NC1=O [Example 7] (GYIQNEPGG-NH2; lactam N-6) | 124 | 87 |  |
| CC[C@H](C)[C@@H]1NC(=O)[C@H](Cc2ccc(O)cc2)NC(=O)CNC(=O)CC[C@@H](C(=O)N2CCC[C@H]2C(=O)N[C@@H](CC(C)C)C(=O)NCC(N)=O)NC(=O)[C@H](CC(N)=O)NC(=O)[C@H](Cc2cnc[nH]2)NC1=O [Example 9] (GYIHNEPLG-NH2; lactam N-6) | 118 | 93 |  |
| CC[C@H](C)[C@@H]1NC(=O)[C@H](Cc2ccc(O)cc2)NC(=O)CN(C)C(=O)CC[C@@H](C(=O)N2CCC[C@H]2C(=O)N[C@@H](CC(C)C)C(=O)NCC(N)=O)NC(=O)[C@H](CC(N)=O)NC(=O)[C@H](CCC(N)=O)NC1=O [Example 12] ([Sar]YIQNEPLG-NH2; lactam N-6) | 48 | 82 |  |
| CC[C@H](C)[C@@H]1NC(=O)[C@H](Cc2ccc(O)cc2)NC(=O)CNC(=O)CC[C@@H](C(=O)N(C)CC(=O)N[C@H](C(=O)NCC(N)=O)C2CCCCC2)NC(=O)[C@H](CC(N)=O)NC(=O)[C@H](CCC(N)=O)NC1=O [Example 41] (GYIQNE[Sar][Chg]G-NH2; lactam N-6) | 69 | 117 |  |
| CC[C@H](C)[C@@H]1NC(=O)[C@H](Cc2ccc(O)cc2)NC(=O)CNC(=O)CC[C@@H](C(=O)N(C)CC(=O)N[C@@H](CCC(C)C)C(=O)NCC(N)=O)NC(=O)[C@H](CC(N)=O)NC(=O)[C@H](CCC(N)=O)NC1=O [Example 43] (GYIQNE[Sar][hLeu]G-NH2; lactam N-6) | 26 | 124 |  |
| CC[C@H](C)[C@@H]1NC(=O)[C@H](Cc2ccc(O)cc2)NC(=O)CNC(=O)CC[C@@H](C(=O)N2C[C@H](F)C[C@H]2C(=O)N[C@@H](CC(C)C)C(=O)NCC(N)=O)NC(=O)[C@H](CC(N)=O)NC(=O)[C@H](CCC(N)=O)NC1=O [Example 46] (GYIQNE[Pro(trans-4-F)]LG-NH2; lactam N-6) | 10 | 104 |  |
| CC[C@H](C)[C@@H]1NC(=O)[C@H](Cc2ccc(O)cc2)NC(=O)CNC(=O)CC[C@@H](C(=O)N2CCCC[C@H]2C(=O)N[C@@H](CC(C)C)C(=O)NCC(N)=O)NC(=O)[C@H](CC(N)=O)NC(=O)[C@H](CCC(N)=O)NC1=O [Example 47] (GYIQNE[Pip]LG-NH2; lactam N-6) | 1.5 |  | 111 |
| CC[C@H](C)[C@@H]1NC(=O)[C@H](Cc2ccc(O)cc2)NC(=O)CNC(=O)CC[C@@H](C(=O)N(C)CC(=O)NC2(C(=O)NCC(N)=O)CCCC2)NC(=O)[C@H](CC(N)=O)NC(=O)[C@H](CCC(N)=O)NC1=O [Example 48] (GYIQNE[Sar][Ac5c]G-NH2; lactam N-6) | 3.6 |  | 108 |
| CC[C@H](C)[C@@H]1NC(=O)[C@H](Cc2ccc(O)cc2)NC(=O)CNC(=O)CC[C@@H](C(=O)N(C)CC(=O)NC(C)(C)C(=O)NCC(N)=O)NC(=O)[C@H](CC(N)=O)NC(=O)[C@H](CCC(N)=O)NC1=O [Example 49] (GYIQNE[Sar][Aib]G-NH2; lactam N-6) | 5.9 |  | 97 |

The next lines start with the values.

| EC50 [nM] | hOT efficacy (%) | Emax [%] | SMILES |
| --- | --- | --- | --- |
| 31 | 102 |  | CC[C@H](C)[C@@H]1NC(=O)[C@H](Cc2ccc(O)cc2)NC(=O)CNC(=O)CC[C@@H](C(=O)N2CCC[C@H]2CC(=O)N[C@@H](CC(C)C)C(=O)NCC(N)=O)NC(=O)[C@H](CC(N)=O)NC(=O)[C@H](CCC(N)=O)NC1=O [Example 4] (GYIQNE[β3hP]LG-NH2; lactam N-6) |
| 100 | 92 |  | CC(C)C[C@@H]1NC(=O)[C@H](Cc2ccc(O)cc2)NC(=O)CNC(=O)CC[C@@H](C(=O)N2CCC[C@H]2C(=O)N[C@@H](CC(C)C)C(=O)NCC(N)=O)NC(=O)[C@H](CC(N)=O)NC(=O)[C@H](CCC(N)=O)NC1=O [Example 8] (GYLQNEPLG-NH2; lactam N-6) |
| 250 | 92 |  | CC[C@H](C)[C@@H]1NC(=O)[C@H](Cc2ccc(O)cc2)NC(=O)CNC(=O)CC[C@H](C(=O)N2CCC[C@H]2C(=O)N[C@@H](CC(C)C)C(=O)NCC(N)=O)NC(=O)[C@H](CC(N)=O)NC(=O)[C@H](CCC(N)=O)NC1=O [Example 14] (GYIQN[dE]PLG-NH2; lactam N-6) |
| 98 | 116 |  | CC[C@H](C)[C@H]1NC(=O)[C@H](Cc2ccc(O)cc2)NC(=O)CNC(=O)CC[C@@H](C(=O)N2CCC[C@H]2C(=O)N[C@@H](CC(C)C)C(=O)NCC(N)=O)NC(=O)[C@H](CC(N)=O)NC(=O)[C@H](CCC(N)=O)NC1=O [Example 22] (GY[d(aIle)]QNEPLG-NH2; lactam N-6) |
| 88 | 64 |  | CC[C@H](C)[C@@H]1NC(=O)[C@H](Cc2ccc(O)cc2)NC(=O)CNC(=O)CC[C@@H](C(=O)N2CCC[C@@H]2C(=O)N[C@@H](CC(C)C)C(=O)NCC(N)=O)NC(=O)[C@H](CC(N)=O)NC(=O)[C@H](CCC(N)=O)NC1=O [Example 23] (GYIQNE[dP]LG-NH2; lactam N-6) |
| 41 | 138 |  | CC[C@H](C)[C@@H]1NC(=O)[C@H](Cc2ccc(O)cc2)NC(=O)CNC(=O)CC[C@@H](C(=O)N2CCC[C@H]2C(=O)N[C@@](C)(CC(C)C)C(=O)NCC(N)=O)NC(=O)[C@H](CC(N)=O)NC(=O)[C@H](CCC(N)=O)NC1=O [Example 36] (GYIQNEP[αMeL]G-NH2; lactam N-6) |
| 4 |  | 137 | CC[C@H](C)[C@@H]1NC(=O)[C@H](Cc2ccc(O)cc2)NC(=O)CNC(=O)CC[C@@H](C(=O)N(C)CC(=O)N[C@@H](CC(C)C)C(=O)NCC(N)=O)NC(=O)[C@H](CC(N)=O)NC(=O)[C@H](C)NC1=O [Example 37] (GYIANE[Sar]LG-NH2; lactam N-6) |
| 1 |  | 126 | CC[C@H](C)[C@@H]1NC(=O)[C@H](Cc2ccc(O)cc2)NC(=O)CNC(=O)CC[C@@H](C(=O)N(C)CC(=O)N[C@@H](Cc2c[nH]c3ccccc23)C(=O)NCC(N)=O)NC(=O)[C@H](CC(N)=O)NC(=O)[C@H](CCC(N)=O)NC1=O [Example 38] (GYIQNE[Sar]WG-NH2; lactam N-6) |
| 1 |  | 119 | CC[C@H](C)[C@@H]1NC(=O)[C@H](Cc2ccc(O)cc2)NC(=O)CNC(=O)CC[C@@H](C(=O)N(C)CC(=O)N[C@@H](CN)C(=O)NCC(N)=O)NC(=O)[C@H](CC(N)=O)NC(=O)[C@H](CCC(N)=O)NC1=O [Example 42] (GYIQNE[Sar][Dap]G-NH2; lactam N-6) |
| 4.3 |  | 121 | CC[C@H](C)[C@@H]1NC(=O)[C@H](Cc2ccc(O)cc2)NC(=O)CNC(=O)CC[C@@H](C(=O)N(C)CC(=O)N[C@@H](CC(C)C)C(=O)NCC(N)=O)NC(=O)[C@H](CC(N)=O)NC(=O)[C@H](CO)NC1=O [Example 52] (GYISNE[Sar]LG-NH2; lactam N-6) |
| 1.1 |  | 127 | CCCCCC[C@H](NC(=O)CN(C)C(=O)[C@@H]1CCC(=O)NCC(=O)N[C@@H](Cc2ccc(O)cc2)C(=O)N[C@@H]([C@@H](C)CC)C(=O)N[C@@H](CCC(N)=O)C(=O)N[C@@H](CC(N)=O)C(=O)N1)C(=O)NCC(N)=O [Example 53] (GYIQNE[Sar][Aoc(2)]G-NH2; lactam N-6) |
